Laboratory results reported in US6610501B2, “Porcine protein and uses thereof” (New York Blood Center, Inc., priority 1999, dated 2003).

Legend:
Type in all cases: cell-based, porcine
pRBCs [1] = experiment: Flow cytometry analysis of binding of human xenoreactive antibodies to pRBCs
Procedure: FIG. 7 represents the effect of the trisaccharide of FIG. 4 on the binding of fractions S1 and S2 to pRBCs. 40 μl of the trisaccharide (2 mg/ml) was added to 2 μl of S1 or S2 plus 38 μl of PBS (final concentration of trisaccharide 1 mg/ml), followed by incubation at 4° C. overnight. pRBCs were then added and flow cytometry analysis performed, using anti-human IgG (H+L) conjugated with phycoerythrin (PE) as the secondary antibody. Sample 1: negative control lacking the primary and secondary antibodies. Sample 2: negative control containing the secondary antibody only. Samples 3 and 4: fraction S1 without and with the trisaccharide of FIG. 4, respectively. Samples 5 and 6: fraction S2 without and with the trisaccharide of FIG. 4, respectively.
FIG. 8 represents the effect of concentration of the trisaccharide of FIG. 4 on the binding of S1 to pRBCs. Fraction S1 was incubated with various amounts of the trisaccharide under the same conditions described in […]. The binding of IgG (curve 1) and IgM (curve 2) molecules from fraction S1 was monitored by flow cytometry, using anti-human IgG and anti-human IgM, respectively. The data from the flow cytometry analyses were plotted as mean fluorescent intensity (MFI) versus the final concentration of trisaccharide, and the curves were generated by nonlinear curve fitting.
FIG. 9 represents the effect of the trisaccharide of FIG. 4 on the binding of anti-αGal and non-αGal antibodies to pRBCs. The control samples (1 and 2) were as described for FIG. 7. (A): anti-αGal antibody incubated in the absence (curve 3) or presence (curve 4) of the trisaccharide (1 mg/ml). (B): Non-αGal antibodies incubated in the absence (curve 3) or presence (curve 4) of the trisaccharide (1 mg/ml). […]
Various fractions derived from human serum were analyzed by flow cytometry. […]
To directly detect non-anti-αGal antibodies from the S2 fraction, we isolated these antibodies by using a pRBC absorption/elution method. The eluted fraction (non-αGal antibodies) was then measured for its binding to pRBCs in the presence or absence of the trisaccharide. […]

pRBCs [2] = conditions: 1 mg/ml trisaccharide, time course experiment at 37° C.; FIG. 5
From the text: FIG. 3 represents the procedure for measuring human complement-mediated hemolysis. The procedure is outlined in panel B. Hemolysis (A) is plotted as percent lysis versus volume of human serum added (μl). Lysis is defined as (OD-ODo)/(OD100−ODo), where OD represents the amount of lysis, as measured by the absorbance at 541 nm, ODo is the absorbance at 541 nm that is due to spontaneous lysis in the absence of any additions, and OD100 is the absorbance at 541 nm that is due to 100% lysis of red cells under the experimental conditions. […]
The hemolysis was monitored up to 4 hr. […]
In blood transfusions between humans, mismatched red cells undergo intravascular destruction by the same mechanism as complement-induced hemolysis observed in vitro. […] Since this serum was derived from type B individuals, as determined by hemagglutination assays, we used only non-type A pRBCs in the complement assays to exclude the binding of anti-A antibody present in the serum.
The human serum (between 3-18 μl) was mixed with 40 μl of 5% pRBCs (about 2×10^7 cells) in a total volume of 210 μl. […] Hemoglobin molecules released from the lysed cells into the supernatant were quantitated by measuring the absorbance at 541 nm. […]
We also measured the time course for complement-mediated hemolysis of pRBCs (FIG. 5). […]

pRBCs [3] = experiment: Effect of ssDNA and thyroglobulin on S1- or S2-induced hemagglutination of pRBCs; conditions: final concentration 1 mg/ml, 4° C. 3 hr
From the text: To determine whether the xenoreactive antibodies that we characterized in the binding of pRBCs are polyreactive, we tested the effect of ssDNA and thyroglobulin on binding of antibodies by hemagglutination assays and flow cytometry analyses (Turman M A, Casali P, Notkins A L, Bach F H, and Platt J L (1991) Transplantation 52:710-717). To ensure that the xenoreactive antibodies were not present in excess, we titrated the amount of antibodies used in the hemagglutination assays and chose the dilution that produced an intermediate strength (2+ or 3+) for inhibition. Fraction S1 or S2 was pre-incubated with ssDNA or thyroglobulin (final concentration 1 mg/ml) at 4° C. for 3 hr before adding pRBCs for the hemagglutination assay.

Compound | inhibition of anti-αGal antibody in normal human serum (pRBCs [1]; trisaccharide 1 mg/ml, flow cytometry) | inhibition of IgG versus IgM binding of S1 to pRBCs (pRBCs [1]; various trisaccharide concentrations, FIG. 8) | inhibition of cell lysis (pRBCs [2]) | inhibitory effect on S1- or S2-induced hemagglutination (pRBCs [3]) | effect on binding of xenoreactive antibodies to pRBCs (pRBCs [1]; pre-incubation at 0.01, 0.1 or 1.0 mg/ml, FIG. 11)
CC(=O)N[C@H]1C(O)O[C@H](CO)[C@@H](O[C@@H]2O[C@H](CO)[C@H](O)[C@H](O[C@H]3O[C@H](CO)[C@H](O)[C@H](O)[C@H]3O)[C@H]2O)[C@@H]1O (some centres unmarked) [trisaccharide, Galα1,3Galβ1,4GlcNAc] | completely inhibited | inhibit IgG binding more efficiently than IgM binding | approximately 50% | – | –
thyroglobulin: thyroglobulin used to test polyreactivity of the antibodies | – | – | – | neither ssDNA nor thyroglobulin showed any inhibitory effect | little affected, if any
